Patent US7863328B2, “Phenylbenzoic acid derivatives, processes for the preparation thereof, pharmaceutical compositions comprising them, and therapeutic uses thereof” (Merck Patent GmbH, priority 2005, dated 2011)

Molecular target: T1, chimeric protein PPARγ-Gal4 (Homo sapiens, UniProt P37231)
T1 construct: expressed in transfected cells; host or cells: CV-1 cells (monkey kidney cells)
Assay: PPARγ-Gal4 transactivation test (luciferase reporter) in cotransfected CV-1 cells
Type: cell-based
Protocol: The measurement of the PPAR activation was performed according to a technique described by Lehmann et al. (J. Biol. Chem., 270, (1995), 12953-12956).
CV-1 cells (monkey kidney cells) are cotransfected with an expression vector for the chimeric protein PPARγ-Gal4 and with a “reporter” plasmid that allows expression of the luciferase gene placed under the control of a promoter comprising Gal4 response elements.
The cells are seeded in 96-well microplates and cotransfected using a commercial reagent with the reporter plasmid (pG5-tk-pGL3) and the expression vector for the chimeric protein (PPARγ-Gal4). After incubation for 4 hours, whole culture medium (comprising 10% foetal calf serum) is added to the wells. After 24 hours, the medium is removed and replaced with whole medium comprising the test products. The products are left in contact with the cells for 18 hours. The cells are then lysed and the luciferase activity is measured using a luminometer. A PPARγ activation factor can then be calculated by means of the activation of the expression of the reporter gene induced by the product (relative to the control cells that have received no product).
In the absence of the PPARγ ligand binding domain (vector expressing Gal4 alone), the luciferase activity measured in the presence of this product is zero.
The following transactivation result was obtained with a concentration of 30 μM on PPARγ.
The transactivation test using the expression of a chimeric protein Gal-4-PPARγ makes it possible to determine also whether an agonist functions as a “full” agonist or as a “partial” agonist in this system.
An agonist is “partial” in this system if it induces a weaker response, i.e. it has lower efficacy, than rosiglitazone, which is a “full” agonist. In concrete terms, in our system, the transactivation obtained at the plateau with a partial agonist will be between 20% and 50% of the maximum response (efficacy) at the plateau of rosiglitazone.

T1 sequence (P37231 238-503 limits assumed, change not shown): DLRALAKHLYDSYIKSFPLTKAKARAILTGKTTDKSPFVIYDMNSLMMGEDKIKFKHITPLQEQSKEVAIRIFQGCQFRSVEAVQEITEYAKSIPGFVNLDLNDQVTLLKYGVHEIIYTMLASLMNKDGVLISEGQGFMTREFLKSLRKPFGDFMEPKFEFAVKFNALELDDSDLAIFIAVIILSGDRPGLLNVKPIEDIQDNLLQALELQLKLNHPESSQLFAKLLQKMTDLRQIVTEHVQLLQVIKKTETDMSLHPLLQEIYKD
T1 sequence (P04386 1-147 partner limits assumed): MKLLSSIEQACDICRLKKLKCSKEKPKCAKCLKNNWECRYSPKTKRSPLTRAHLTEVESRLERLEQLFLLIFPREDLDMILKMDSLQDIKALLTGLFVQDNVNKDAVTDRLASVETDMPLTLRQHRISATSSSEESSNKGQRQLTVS

Question: How did the “Activation factor of the chimeric protein PPARγ-Gal4” value (concentration 30 μM, 18 hours contact, relative to control cells that have received no product (control = 1)) turn out when `Cc1cc(COc2cc3c(cc2-c2ccc(C(=O)O)cc2)CCC3=O)no1` [Example 29, 4-[6-(5-methylisoxazol-3-ylmethoxy)-1-oxoindan-5-yl]benzoic acid] was run?
Answer: The value was 16.

Question: For `Cc1oc(-c2ccccc2)nc1COc1cc2c(cc1-c1ccc(C(=O)O)cc1)CCC2=O` [Example 4, 4-[6-(5-Methyl-2-phenyloxazol-4-ylmethoxy)-1-oxoindan-5-yl]-benzoic acid], which “Concentration to reach the maximum stimulation of the PPARγ chimeric protein” value (Gal4-PPARγ transactivation, plateau) is on record?
Answer: The value was 6.25 µM.

Question: And the Emax (transactivation at the plateau as % of the maximum response (efficacy) of rosiglitazone, read-out: Maximum stimulation of the PPARγ chimeric protein obtained with rosiglitazone)?
Answer: Its Emax is 23%.
